Active and inactive are the calls of the source.
Key:
[1] = inhibitors of Bluetongue virus cytopathic effect, confirmation, arbovirus, BSR cells (AID 1250); assay type: functional;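 further: protection from viral cytopathic effect measured as cell viability by ATP luminescence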
[2] = A549 cell cytotoxicity, dose response, cytotoxicity control, plate reader, cherry-pick, antagonist series (AID 743412); assay type: functional, cell-based
[3] = HepG2 cell cytotoxicity, dose response, cytotoxicity control, plate reader, cherry-pick, antagonist series (AID 743416); assay type: functional, cell-based
[4] = LGR2 antagonists, dose response, cell-based, HEK293, CRE-luciferase reporter, cherry pick, set 2 (AID 743343); assay type: functional;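 further: transfected cells were stimulated with diluted bursicon conditioned medium after compound addition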
[5] = Luminescence-based counterscreen assay for KLF5 inhibitors: dose response cell-based high throughput screening assay to identify cytotoxic compounds using the IEC-6 intestinal epithelial cell line. [Related pubchem assays: 1700 (Primary screen.), 1834 (Confirmation screen.), 1858 (Summary AID.), 1905 (Counterscreen.)]; assay type: functional
[6] = HEK293 cell cytotoxicity, dose response, cytotoxicity control, plate reader, cherry-picked samples (AID 743446); assay type: functional, cell-based
[7] = MC4R antagonists, dose response, counter-screen for LGR2 antagonist project, cell-based, plate reader, cherry pick (AID 743444); assay type: functional;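 further: transfected HEK 293 cells stimulated with alpha-MSH peptide; potency of inhibitors of the alpha-MSH evoked signal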
[8] = target: Neuropeptide Y receptor type 1 (Homo sapiens, UniProt P25929); assay type: functional;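 further: HEK293 cells with a CNG channel challenged with NPY then isoproterenol; potency as antagonist that reverses NPY suppression of cAMP signal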
[9] = target: Neuropeptide Y receptor type 2 (Homo sapiens, UniProt P49146); assay type: functional, cell-based;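 further: HEK293 cells expressing the receptor and a CNG channel; stimulus was NPY near EC95 followed by isoproterenol to raise cAMP; antagonist potency measured as restoring cAMP signal that NPY suppresses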
Protein skinhead-1 = target: T1, Protein skinhead-1 (Caenorhabditis elegans, UniProt P34707); assay type: functional
T1 sequence (P34707 whole entry): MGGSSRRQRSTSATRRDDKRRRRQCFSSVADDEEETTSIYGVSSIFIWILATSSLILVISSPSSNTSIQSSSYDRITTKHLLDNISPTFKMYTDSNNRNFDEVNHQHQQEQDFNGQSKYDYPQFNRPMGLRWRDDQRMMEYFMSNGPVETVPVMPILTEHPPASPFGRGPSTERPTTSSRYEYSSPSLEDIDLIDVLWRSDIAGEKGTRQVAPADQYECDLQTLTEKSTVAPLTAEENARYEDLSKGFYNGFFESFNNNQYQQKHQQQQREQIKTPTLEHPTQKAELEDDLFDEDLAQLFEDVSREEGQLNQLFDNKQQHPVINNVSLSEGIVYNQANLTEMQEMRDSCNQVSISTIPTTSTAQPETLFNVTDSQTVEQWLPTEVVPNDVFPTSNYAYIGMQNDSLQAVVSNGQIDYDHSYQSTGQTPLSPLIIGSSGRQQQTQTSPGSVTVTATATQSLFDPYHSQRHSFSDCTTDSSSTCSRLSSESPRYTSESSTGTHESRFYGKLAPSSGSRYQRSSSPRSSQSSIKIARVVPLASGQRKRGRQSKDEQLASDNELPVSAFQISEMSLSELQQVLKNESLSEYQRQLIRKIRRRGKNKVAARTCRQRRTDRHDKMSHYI

[10] = target: T2, Alkaline phosphatase, tissue-nonspecific isozyme (Homo sapiens, UniProt P05186)
T2 sequence (P05186 whole entry): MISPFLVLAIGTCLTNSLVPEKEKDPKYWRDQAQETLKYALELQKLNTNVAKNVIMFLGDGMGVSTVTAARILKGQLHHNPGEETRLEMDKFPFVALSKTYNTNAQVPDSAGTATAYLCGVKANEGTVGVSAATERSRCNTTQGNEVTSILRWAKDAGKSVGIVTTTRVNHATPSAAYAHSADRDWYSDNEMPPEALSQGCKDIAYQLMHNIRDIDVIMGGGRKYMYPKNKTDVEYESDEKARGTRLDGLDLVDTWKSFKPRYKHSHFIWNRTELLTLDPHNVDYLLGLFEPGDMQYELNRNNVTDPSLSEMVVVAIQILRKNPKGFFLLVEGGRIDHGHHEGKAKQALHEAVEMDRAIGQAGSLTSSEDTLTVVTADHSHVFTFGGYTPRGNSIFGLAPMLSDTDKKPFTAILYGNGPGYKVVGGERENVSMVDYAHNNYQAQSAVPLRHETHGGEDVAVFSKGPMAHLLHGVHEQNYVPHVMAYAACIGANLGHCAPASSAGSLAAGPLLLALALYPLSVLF

[11] = cytotoxicity in KRAS-transformed pancreatic duct cells, primary screen, cell-based, fluorescence, HTS (AID 431); assay type: functional; conditions: Homo sapiens;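 further: cell line used: HPDE-C7K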
[12] = target: T3, RNA-binding protein pos-1 (Caenorhabditis elegans, UniProt G5EF15); assay: inhibitors of POS-1/mex-3 RNA binding, dose response, biochemical, fluorescence polarization (AID 1964);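 further: purified POS-1 fused to maltose binding protein made in E. coli; potency of compounds blocking POS-1 binding to fluorescent RNA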
T3 sequence (G5EF15 whole entry): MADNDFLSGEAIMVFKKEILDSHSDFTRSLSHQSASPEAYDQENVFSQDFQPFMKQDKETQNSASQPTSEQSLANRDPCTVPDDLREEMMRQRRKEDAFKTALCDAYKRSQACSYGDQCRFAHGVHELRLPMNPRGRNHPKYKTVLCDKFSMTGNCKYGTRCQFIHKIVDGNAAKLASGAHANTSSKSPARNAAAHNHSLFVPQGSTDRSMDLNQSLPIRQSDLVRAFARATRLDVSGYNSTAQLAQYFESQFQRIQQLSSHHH

[13] = target: Luciferin 4-monooxygenase (Photinus pyralis, UniProt P08659); assay: Counter Screen for Luciferase-based Assay Positives. [Related pubchem assays: 620, 618, 411 ]
[14] = target: T4, Zinc finger protein mex-5 (Caenorhabditis elegans, UniProt Q9XUB2); assay: MEX-5/TCR-2 RNA interaction inhibitors, dose response, biochemical, C. elegans, fluorescence polarization (AID 1960)
T4 sequence (Q9XUB2 whole entry): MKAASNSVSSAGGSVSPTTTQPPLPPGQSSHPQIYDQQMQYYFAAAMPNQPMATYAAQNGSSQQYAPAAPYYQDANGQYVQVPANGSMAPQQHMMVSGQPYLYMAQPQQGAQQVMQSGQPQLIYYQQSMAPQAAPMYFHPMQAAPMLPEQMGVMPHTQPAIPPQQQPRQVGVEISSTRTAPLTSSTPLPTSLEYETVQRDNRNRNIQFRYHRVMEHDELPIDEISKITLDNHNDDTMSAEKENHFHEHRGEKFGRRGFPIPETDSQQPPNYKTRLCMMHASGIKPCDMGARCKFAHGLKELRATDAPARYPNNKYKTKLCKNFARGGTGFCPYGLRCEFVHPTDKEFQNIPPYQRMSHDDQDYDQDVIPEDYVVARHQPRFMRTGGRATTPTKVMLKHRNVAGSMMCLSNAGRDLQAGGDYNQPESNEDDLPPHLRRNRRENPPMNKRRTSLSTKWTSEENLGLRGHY

[15] = cytotoxicity in HPDE-C7 cells, cell-based, fluorescence, HTS (AID 430); assay type: functional; conditions: Homo sapiens
HT-1080 = assay: cytotoxicity in HT1080 fibrosarcoma cells, cell-based, fluorescence readout (AID 620); assay type: functional; conditions: Homo sapiens
[16] = target: Peroxisome proliferator-activated receptor gamma/Nuclear receptor corepressor 2 (Homo sapiens, UniProt P37231+Q9Y618); assay type: functional
[17] = target: Peroxisome proliferator-activated receptor gamma/Nuclear receptor coactivator 1 (Homo sapiens, UniProt P37231); assay: TR-FRET dose response biochemical High Throughput Screening assay for agonists of the steroid receptor coactivator 1 (SRC-1) recruitment by the peroxisome proliferator-activated receptor gamma (PPAR gamma): non-selective agonists. [Related pubchem assays (depositor defined):AID1300, AID1808, AID504735, AID631]; assay type: protein assay
[18] = target: Peroxisome proliferator-activated receptor gamma/Nuclear receptor coactivator 2 (Homo sapiens, UniProt P37231); assay: TR-FRET dose response biochemical High Throughput Screening assay for agonists of the steroid receptor coactivator 2 (SRC-2) recruitment by the peroxisome proliferator-activated receptor gamma (PPAR gamma): non-selective agonists. [Related pubchem assays: 1297, 1032 ]; assay type: functional
[19] = target: Photoreceptor-specific nuclear receptor (Homo sapiens, UniProt Q9Y5X4); assay type: functional;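 further: potency for compounds that break the NR2E3 corepressor complex and count as activators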
[20] = target: Peroxisome proliferator-activated receptor gamma/Nuclear receptor coactivator 3 (Homo sapiens, UniProt P37231); assay: TR-FRET dose response biochemical High Throughput Screening assay for agonists of the steroid receptor coactivator 3 (SRC-3) recruitment by the peroxisome proliferator-activated receptor gamma (PPAR gamma): non-selective agonists. [Related pubchem assays: 1301 (Confirmation screen.), 1048 (Primary screen.)]; assay type: functional
Cytochrome P450 2C19 = Cytochrome P450 2C19 (Homo sapiens, UniProt P33261); assay: Cytochrome panel assay with activity outcomes. Panel member name: p450-cyp2c19 Compounds with AC50 equal or less than 10 uM are considered active; assay type: functional; conditions: read-out: AC50
Cysteine protease ATG4B = target: T5, Cysteine protease ATG4B (Homo sapiens, UniProt Q9Y4P1); assay type: functional;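 further: Fluorescence-based dose-response confirmation assay measuring inhibition of ATG4B activity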
T5 sequence (Q9Y4P1 whole entry): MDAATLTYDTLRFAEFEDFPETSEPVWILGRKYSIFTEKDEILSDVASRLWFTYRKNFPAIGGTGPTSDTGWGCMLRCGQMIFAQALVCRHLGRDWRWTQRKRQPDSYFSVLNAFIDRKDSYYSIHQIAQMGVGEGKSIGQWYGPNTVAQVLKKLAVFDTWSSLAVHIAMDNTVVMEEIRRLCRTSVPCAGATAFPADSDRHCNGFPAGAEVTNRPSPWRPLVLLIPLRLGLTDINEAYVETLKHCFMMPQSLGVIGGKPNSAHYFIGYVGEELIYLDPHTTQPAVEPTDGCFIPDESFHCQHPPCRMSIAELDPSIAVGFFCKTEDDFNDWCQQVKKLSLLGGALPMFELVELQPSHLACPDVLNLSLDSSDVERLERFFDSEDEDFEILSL

[21] = target: Heat shock cognate 71 kDa protein (Homo sapiens, UniProt P11142); assay: In Vitro Hsc70 Dose Response Fluorescence Polarization Assay. [Related pubchem assays: 1072 ]
[22] = target: T6, Dual specificity protein phosphatase 6 (Rattus norvegicus, UniProt Q64346)
T6 sequence (Q64346 whole entry): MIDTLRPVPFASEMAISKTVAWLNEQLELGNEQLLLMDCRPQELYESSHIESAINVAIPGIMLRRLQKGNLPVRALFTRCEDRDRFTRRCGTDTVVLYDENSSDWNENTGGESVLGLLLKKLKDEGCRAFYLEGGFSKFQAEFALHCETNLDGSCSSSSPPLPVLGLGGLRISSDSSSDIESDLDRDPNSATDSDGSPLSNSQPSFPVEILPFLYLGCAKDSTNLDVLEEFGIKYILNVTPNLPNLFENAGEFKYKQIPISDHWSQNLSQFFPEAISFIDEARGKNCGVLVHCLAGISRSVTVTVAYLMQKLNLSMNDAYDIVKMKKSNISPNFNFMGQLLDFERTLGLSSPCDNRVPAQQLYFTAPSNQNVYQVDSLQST

HeLa = assay: HeLa cell cytotoxicity, dose response, cytotoxicity control, 24 h, cherry-picked samples (AID 504726); assay type: functional, cell-based; conditions: Homo sapiens;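 further: potency for cytotoxicity as loss of luminescence signal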
[23] = target: Glyceraldehyde-3-phosphate dehydrogenase (Homo sapiens, UniProt P04406)
Vero = Vero cell cytotoxicity, cytotoxicity control for flavivirus capping enzyme inhibitors (AID 588742); assay type: functional; conditions: Chlorocebus sabaeus
[24] = target: T7, Tyrosine-protein phosphatase non-receptor type 7 (Homo sapiens, UniProt P35236); assay type: functional
T7 sequence (P35236 whole entry): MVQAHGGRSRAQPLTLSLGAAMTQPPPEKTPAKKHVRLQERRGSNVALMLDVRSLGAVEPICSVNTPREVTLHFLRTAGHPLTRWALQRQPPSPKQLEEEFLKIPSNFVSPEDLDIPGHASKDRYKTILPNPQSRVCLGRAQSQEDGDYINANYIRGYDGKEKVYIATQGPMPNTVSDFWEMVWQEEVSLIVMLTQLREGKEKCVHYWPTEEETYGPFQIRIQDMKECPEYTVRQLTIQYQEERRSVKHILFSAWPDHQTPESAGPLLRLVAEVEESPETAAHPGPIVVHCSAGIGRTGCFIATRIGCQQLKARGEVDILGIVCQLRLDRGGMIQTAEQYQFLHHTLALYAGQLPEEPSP

[25] = target: Heat shock 70 kDa protein 1A (Homo sapiens, UniProt P0DMV8); assay: Hsp70 inhibitors, SAR follow-up, biochemical, fluorescence polarization (AID 1072)
ORF 73 = ORF 73 (Human herpesvirus 8, UniProt O40947); assay: inhibitors of C-LANA binding to LBS DNA, dose response, biochemical, fluorescence polarization, cherry-picked samples (AID 504725); set-up: species or system Human gammaherpesvirus 8;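 further: fluorescence polarization of a labeled DNA duplex reporting LANA DNA binding; potency is for inhibitors that block LANA binding to the DNA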
Phospholipase A2 = Phospholipase A2 (Homo sapiens, UniProt P04054); assay type: functional;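 further: confirmatory dose-response counterscreen on phospholipase A2, testing hits that came from an ultra-high-throughput screen for ATG4B inhibitors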
[26] = target: T6, Dual specificity protein phosphatase 6; assay type: functional

Sequence of Neuropeptide Y receptor type 1 (P25929 whole entry): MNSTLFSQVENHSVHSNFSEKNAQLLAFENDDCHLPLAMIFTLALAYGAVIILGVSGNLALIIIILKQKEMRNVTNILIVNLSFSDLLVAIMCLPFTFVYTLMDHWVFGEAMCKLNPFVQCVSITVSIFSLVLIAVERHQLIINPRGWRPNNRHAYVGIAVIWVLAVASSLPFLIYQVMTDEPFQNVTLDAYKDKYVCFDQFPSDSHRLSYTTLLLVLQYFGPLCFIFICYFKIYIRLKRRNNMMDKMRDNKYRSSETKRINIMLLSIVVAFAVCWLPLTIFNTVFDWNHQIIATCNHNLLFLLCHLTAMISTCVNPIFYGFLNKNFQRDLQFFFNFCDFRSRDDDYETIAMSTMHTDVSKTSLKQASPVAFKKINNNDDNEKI
Sequence of Phospholipase A2 (P04054 whole entry): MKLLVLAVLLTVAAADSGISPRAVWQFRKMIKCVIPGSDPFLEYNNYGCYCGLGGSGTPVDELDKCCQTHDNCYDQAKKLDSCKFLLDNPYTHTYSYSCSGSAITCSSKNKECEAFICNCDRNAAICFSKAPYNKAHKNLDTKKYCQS
Sequence of Heat shock cognate 71 kDa protein (P11142 whole entry): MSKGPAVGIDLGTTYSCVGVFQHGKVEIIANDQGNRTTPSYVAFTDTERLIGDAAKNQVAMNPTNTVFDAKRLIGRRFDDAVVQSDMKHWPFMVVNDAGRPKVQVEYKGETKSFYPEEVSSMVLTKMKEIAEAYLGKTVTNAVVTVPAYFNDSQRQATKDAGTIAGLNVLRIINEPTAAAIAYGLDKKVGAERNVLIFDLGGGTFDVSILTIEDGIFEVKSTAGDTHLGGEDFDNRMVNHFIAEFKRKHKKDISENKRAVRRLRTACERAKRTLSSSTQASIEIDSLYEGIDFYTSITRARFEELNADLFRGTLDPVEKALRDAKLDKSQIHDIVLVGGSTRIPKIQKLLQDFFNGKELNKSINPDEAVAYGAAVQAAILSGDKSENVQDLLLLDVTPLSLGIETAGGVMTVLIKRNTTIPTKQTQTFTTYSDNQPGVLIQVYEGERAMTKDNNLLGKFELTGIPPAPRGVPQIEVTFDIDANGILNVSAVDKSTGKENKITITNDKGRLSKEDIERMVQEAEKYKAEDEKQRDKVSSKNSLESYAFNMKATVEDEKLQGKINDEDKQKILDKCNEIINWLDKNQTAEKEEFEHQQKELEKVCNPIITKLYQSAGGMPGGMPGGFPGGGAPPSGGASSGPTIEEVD
Sequence of Photoreceptor-specific nuclear receptor (Q9Y5X4 whole entry): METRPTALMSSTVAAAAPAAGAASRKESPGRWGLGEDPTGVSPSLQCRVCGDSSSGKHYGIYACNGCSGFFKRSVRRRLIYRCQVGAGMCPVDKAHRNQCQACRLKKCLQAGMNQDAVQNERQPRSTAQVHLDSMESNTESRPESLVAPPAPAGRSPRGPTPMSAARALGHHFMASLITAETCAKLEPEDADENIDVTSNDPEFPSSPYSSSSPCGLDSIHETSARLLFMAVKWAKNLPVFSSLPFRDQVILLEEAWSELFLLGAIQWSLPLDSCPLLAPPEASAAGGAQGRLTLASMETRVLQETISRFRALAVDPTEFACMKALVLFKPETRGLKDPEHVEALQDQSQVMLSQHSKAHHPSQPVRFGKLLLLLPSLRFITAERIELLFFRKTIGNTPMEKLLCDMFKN
Sequence of Cytochrome P450 2C19 (P33261 whole entry): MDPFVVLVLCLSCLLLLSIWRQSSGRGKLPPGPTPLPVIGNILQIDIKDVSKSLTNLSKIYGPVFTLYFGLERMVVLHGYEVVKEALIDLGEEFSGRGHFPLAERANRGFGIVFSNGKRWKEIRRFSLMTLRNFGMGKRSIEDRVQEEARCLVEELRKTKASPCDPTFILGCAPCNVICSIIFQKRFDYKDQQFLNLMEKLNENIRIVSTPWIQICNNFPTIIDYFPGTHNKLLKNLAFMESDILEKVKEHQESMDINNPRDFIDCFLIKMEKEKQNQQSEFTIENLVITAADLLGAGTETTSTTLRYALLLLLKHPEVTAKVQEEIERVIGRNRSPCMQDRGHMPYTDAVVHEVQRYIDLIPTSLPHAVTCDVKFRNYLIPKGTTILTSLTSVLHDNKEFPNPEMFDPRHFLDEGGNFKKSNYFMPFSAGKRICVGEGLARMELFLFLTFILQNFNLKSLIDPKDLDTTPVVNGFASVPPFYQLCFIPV
Sequence of Luciferin 4-monooxygenase (P08659 whole entry): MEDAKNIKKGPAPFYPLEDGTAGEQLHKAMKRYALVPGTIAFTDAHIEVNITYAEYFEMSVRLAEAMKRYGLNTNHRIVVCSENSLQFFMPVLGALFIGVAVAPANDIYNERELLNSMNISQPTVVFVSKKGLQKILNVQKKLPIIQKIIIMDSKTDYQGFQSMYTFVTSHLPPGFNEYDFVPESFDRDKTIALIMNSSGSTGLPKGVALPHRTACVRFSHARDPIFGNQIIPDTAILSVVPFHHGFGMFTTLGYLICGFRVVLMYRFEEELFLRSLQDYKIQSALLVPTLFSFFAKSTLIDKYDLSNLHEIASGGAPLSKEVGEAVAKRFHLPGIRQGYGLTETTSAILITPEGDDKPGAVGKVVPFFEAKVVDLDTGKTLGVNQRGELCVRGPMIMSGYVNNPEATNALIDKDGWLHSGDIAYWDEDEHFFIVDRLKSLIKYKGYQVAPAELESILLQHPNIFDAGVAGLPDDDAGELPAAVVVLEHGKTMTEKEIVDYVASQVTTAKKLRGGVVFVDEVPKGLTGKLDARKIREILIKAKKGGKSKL
Sequence of Peroxisome proliferator-activated receptor gamma/Nuclear receptor coactivator 2 (P37231 whole entry): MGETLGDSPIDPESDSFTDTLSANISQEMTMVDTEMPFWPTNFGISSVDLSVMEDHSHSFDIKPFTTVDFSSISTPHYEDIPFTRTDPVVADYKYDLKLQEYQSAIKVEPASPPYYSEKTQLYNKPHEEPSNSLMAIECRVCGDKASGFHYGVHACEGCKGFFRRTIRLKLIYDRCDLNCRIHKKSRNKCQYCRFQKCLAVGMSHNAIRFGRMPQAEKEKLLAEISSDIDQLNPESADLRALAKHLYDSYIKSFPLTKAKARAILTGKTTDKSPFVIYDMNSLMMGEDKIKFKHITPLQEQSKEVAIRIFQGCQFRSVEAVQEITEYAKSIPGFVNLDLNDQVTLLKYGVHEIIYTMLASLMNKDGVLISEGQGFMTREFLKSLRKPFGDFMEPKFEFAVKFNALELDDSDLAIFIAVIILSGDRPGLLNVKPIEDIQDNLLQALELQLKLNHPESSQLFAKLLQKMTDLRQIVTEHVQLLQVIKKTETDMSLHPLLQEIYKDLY
Sequence of Peroxisome proliferator-activated receptor gamma/Nuclear receptor coactivator 2 (Q15596 whole entry, further chain): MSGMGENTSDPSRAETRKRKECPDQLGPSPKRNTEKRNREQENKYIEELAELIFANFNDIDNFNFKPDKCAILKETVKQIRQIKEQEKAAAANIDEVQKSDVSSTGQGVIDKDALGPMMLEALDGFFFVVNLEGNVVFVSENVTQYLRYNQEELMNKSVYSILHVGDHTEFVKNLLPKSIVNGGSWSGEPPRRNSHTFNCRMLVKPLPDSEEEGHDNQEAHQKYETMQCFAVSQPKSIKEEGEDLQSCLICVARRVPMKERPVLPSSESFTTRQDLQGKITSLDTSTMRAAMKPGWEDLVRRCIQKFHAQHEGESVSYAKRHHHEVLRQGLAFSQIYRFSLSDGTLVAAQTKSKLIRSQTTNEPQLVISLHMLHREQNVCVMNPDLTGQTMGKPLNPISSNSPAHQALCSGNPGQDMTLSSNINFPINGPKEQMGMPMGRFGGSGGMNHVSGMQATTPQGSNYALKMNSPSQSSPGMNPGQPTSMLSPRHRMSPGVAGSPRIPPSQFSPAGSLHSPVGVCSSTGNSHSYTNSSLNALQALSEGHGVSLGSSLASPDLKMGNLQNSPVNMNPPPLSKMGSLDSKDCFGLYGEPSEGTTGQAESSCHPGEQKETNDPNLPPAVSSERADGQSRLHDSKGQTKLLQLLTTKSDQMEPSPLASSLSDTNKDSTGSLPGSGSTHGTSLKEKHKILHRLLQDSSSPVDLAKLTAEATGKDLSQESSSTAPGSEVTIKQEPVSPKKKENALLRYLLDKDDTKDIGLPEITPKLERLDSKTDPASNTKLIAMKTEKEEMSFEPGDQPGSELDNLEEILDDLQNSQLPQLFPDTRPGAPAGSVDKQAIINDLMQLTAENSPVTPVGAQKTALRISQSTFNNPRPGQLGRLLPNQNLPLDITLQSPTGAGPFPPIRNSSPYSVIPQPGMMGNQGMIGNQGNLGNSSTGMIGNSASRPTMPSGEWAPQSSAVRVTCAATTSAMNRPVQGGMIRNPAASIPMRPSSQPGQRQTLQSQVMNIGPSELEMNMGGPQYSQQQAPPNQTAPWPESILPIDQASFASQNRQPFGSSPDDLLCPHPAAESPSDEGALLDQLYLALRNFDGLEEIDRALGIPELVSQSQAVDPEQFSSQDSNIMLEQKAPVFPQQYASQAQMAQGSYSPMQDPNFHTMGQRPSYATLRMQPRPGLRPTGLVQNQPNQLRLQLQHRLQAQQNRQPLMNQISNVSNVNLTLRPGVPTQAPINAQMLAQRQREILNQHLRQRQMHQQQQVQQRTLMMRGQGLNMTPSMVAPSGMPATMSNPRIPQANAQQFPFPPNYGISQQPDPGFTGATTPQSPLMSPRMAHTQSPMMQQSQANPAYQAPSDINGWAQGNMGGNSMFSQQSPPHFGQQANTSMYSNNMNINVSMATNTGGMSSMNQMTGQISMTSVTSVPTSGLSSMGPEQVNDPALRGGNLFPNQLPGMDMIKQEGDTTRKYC
Sequence of Glyceraldehyde-3-phosphate dehydrogenase (P04406 whole entry): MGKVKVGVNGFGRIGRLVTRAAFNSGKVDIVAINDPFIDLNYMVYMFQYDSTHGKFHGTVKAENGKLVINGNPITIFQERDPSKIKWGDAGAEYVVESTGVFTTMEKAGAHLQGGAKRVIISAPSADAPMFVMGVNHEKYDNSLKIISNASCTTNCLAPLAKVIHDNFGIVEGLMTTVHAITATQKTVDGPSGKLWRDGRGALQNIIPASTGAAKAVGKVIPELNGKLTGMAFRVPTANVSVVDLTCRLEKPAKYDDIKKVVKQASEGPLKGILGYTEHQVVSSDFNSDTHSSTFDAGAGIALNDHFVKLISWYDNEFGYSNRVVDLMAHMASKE

## CC1CCc2c(sc(NC(=O)c3ccccc3C(=O)O)c2C#N)C1 (stereo unspecified)
[1]
  IC50: 24 µM (active)

## CCc1ccc(C(=O)Nc2nc3ccccc3[nH]2)cc1
[2]
  AC50: 31.8 µM (active)
[3]
  AC50: 29.3 µM (active)
[4]
  AC50: 1.27 µM (active)
[5]
  IC50: 22.1 µM (not active)
[6]
  AC50: 28.4 µM (active)
[7]
  AC50: 1.45 µM (active)

## Clc1ccc(-c2nnn(Cc3nc4ccccc4s3)n2)cc1
[8]
  IC50: 13.4 µM (not active)
[9]
  IC50: 15.1 µM (not active)
Protein skinhead-1
  IC50: > 100 µM (inactive)

## Cn1nc(CC(=O)NC2CCCCCCCCCCC2)c2ccccc2c1=O
[10]
  EC50: 65 µM (not active)

## Cc1c(NC(=O)c2coc(=O)c(Br)c2)c(=O)n(-c2ccccc2)n1C
[11]
  EC50: 7.23 µM (active)
[12]
  EC50: 8.99 µM (active)
[13]
  EC50: 0.61 µM (active)
[14]
  EC50: 16.8 µM (active)
[15]
  EC50: 7.2 µM (active)
HT-1080
  EC50: 15 µM (active)

## CN(C)CCN1C(=O)C(O)=C(C(=O)c2cc3ccccc3o2)C1c1cccc(Br)c1 (stereo unspecified)
[16]
  IC50: 2.25 µM (active)
[17]
  EC50: > 79.4 µM (inactive)
[18]
  EC50: > 79.4 µM (not active)
[19]
  IC50: > 39.8 µM (not active)
[20]
  EC50: > 79.4 µM (not active)
Cytochrome P450 2C19
  AC50: 31.6 µM (inconclusive)

## O=C(O)C1Nc2ccc(Br)cc2C2C=CCC12 (stereo unspecified)
Cysteine protease ATG4B
  IC50: 3.94 µM (active)
[21]
  IC50: > 100 µM (not active)
[12]
  EC50: 9.81 µM (active)
[22]
  IC50: 12.8 µM (active)
HeLa
  AC50: 106 µM (active)
[23]
  IC50: 28.7 µM (active)
Vero
  CC50: > 40 µM (active)
[24]
  IC50: 1.63 µM (active)
[25]
  IC50: 3.24 µM (active)
ORF 73
  AC50: 29.2 µM (active)
Phospholipase A2
  IC50: 8.24 µM (active)
[26]
  IC50: 12.3 µM (active)
[14]
  EC50: 6.32 µM (active)
